The target in one test is T1, ORL-1 receptor (Homo sapiens, UniProt P41146).
T1 construct: expressed in transfected cells; host or cells: CHO (CHO-ORL1)
In words: ORL-1 receptor binding assay with 3H-nociceptin/Orphanin FQ, membranes of recombinant CHO-ORL1 cells. The note with it: 3H-nociceptin/Orphanin FQ 0.5 nM. Here is the method: a) Method for Determining Affinity for the ORL-1 Receptor
The affinity of the particular substituted 2,5-diaminomethyl-1H-pyrrole of the general formula I for the ORL-1 receptor was determined in a receptor binding assay with ^3H-nociceptin/Orphanin FQ with membranes of recombinant CHO-ORL1 cells, as described by Ardati et al. in Mol. Pharmacol., 51, 1997, pages 816-824. The corresponding literature description is hereby introduced as a reference and is deemed to be part of the disclosure.
The concentration of ^3H-nociceptin/Orphanin FQ in these tests was 0.5 nM. The binding assays were in each case performed with 20 μg of membrane protein per 200 μl batch in 50 mM Hepes, pH 7.4, 10 mM MgCl2 and 1 mM EDTA. Binding to the ORL1 receptor was determined using 1 mg portions of WGA-SPA Beads (Amersham-Pharmacia, Freiburg, Germany), by one hour's incubation of the batch at room temperature (approx. 20-25° C.) and subsequent measurement in a Trilux scintillation counter (Wallac, Finland).

For a further test, the target named is human μ opiate receptor (Homo sapiens, UniProt P35372). In words: Human μ opiate receptor binding assay with [3H]-naloxone, CHO-K1 membrane preparation. Particulars: for inhibition at 1 µM: read-out: Human ORm Nal inhibition [%]. The protocol:
b) Method for Determining Affinity for the Human μ opiate receptor
Receptor affinity for the human μ opiate receptor is determined in a homogeneous batch in microtitre plates. To this end, dilution series of the particular substituted 2,5-diaminomethyl-1H-pyrrole to be tested were incubated at room temperature for 90 minutes in a total volume of 250 μl with a receptor membrane preparation (15-40 μg of protein per 250 μl of incubation batch) of CHO-K1 cells, which express the human μ opiate receptor (RB-HOM receptor membrane preparation from NEN, Zaventem, Belgium) in the presence of 1 nmol/l of the radioactive ligand [^3H]-naloxone (NET719, from NEN, Zaventem, Belgium) and of 1 mg of WGA-SPA beads (wheat germ agglutinin SPA beads from Amersham/Pharmacia, Freiburg, Germany). The incubation buffer used is 50 mmol/l tris-HCl supplemented with 0.05 wt. % of sodium azide and with 0.06 wt. % of bovine serum albumin. 25 μmol/l of naloxone were additionally added to determine nonspecific binding. Once the ninety minute incubation time had elapsed, the microtitre plates were centrifuged off for 20 minutes at 1000 g and the radioactivity measured in a β-Counter (Microbeta-Trilux, from PerkinElmer Wallac, Freiburg, Germany. The percentage displacement of the radioactive ligand from its binding to the human μ opiate receptor was determined at a concentration of the substances to be tested of 1 μmol/l and stated as percentage inhibition of specific binding. On the basis of the percentage displacement by different concentrations of the compounds to be tested of the general formula I, IC50 inhibition concentrations which bring about 50% displacement of the radioactive ligand were calculated. Ki values for the test substances were obtained by conversion using the Cheng-Prusoff equation.

In another test the target is T2, 5-HT uptake (Rattus norvegicus, UniProt P31652).
T2 construct: Synaptosomes from rat brain regions were freshly isolated; from tissue; host or cells: rat brain synaptosomes (medulla and pons)
T2 sequence (P31652 whole entry): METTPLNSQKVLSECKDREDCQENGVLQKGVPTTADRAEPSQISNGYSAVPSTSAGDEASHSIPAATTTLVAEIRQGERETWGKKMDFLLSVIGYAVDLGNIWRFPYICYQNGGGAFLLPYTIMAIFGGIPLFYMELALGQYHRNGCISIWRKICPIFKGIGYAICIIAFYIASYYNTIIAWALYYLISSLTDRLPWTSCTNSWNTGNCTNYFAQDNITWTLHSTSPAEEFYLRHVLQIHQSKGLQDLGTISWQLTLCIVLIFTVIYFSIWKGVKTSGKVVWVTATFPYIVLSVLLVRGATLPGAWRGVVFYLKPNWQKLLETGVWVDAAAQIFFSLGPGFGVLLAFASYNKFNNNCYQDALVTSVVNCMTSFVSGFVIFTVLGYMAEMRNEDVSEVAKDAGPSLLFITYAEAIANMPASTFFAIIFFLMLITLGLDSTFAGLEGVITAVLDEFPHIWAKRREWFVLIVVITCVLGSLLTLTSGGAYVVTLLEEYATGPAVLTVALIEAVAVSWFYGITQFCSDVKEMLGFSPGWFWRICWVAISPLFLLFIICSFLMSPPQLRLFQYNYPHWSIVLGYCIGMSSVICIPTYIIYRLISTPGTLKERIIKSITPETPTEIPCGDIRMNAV
In words: 5-HT uptake inhibition in rat brain synaptosomes (medulla and pons). Type of test: biochemical. The note with it: conc. 10 (unit not given), [3H]-5-HT, 5 minutes. The text has this: (§1) c) Method for Determining Noradrenalin and the 5-HT Uptake Inhibition:
(§2) Synaptosomes from rat brain regions were freshly isolated for in vitro studies, as described in the publication “The isolation of nerve endings from brain” by E. G. Gray and V. P. Whittaker, J. Anatomy 96, pages 79-88, 1962. The corresponding literature description is hereby introduced as a reference and is deemed to be part of the disclosure.
(§3) The tissue (hypothalamus for the determination of noradrenalin uptake inhibition and medulla and pons for the determination of 5-HT uptake inhibition) was homogenised in ice-cooled 0.32 M sucrose (100 mg of tissue/1 mL) in a glass homogeniser with teflon pestle using five complete up and down strokes at 840 revolutions/minute.
(§4) The homogenate was centrifuged at 4° C. for 10 minutes at 1000 g. After subsequent centrifugation at 17000 g for 55 minutes, the synaptosomes (P2 fraction) were obtained, which were resuspended in 0.32 M glucose (0.5 mL/100 mg of original weight).
(§5) The particular uptake was measured in a 96-well microtitre plate. The volume was 250 μl and the incubation proceeded at room temperature (approx. 20-25° C.) under an O2 atmosphere.
(§6) The incubation time was 7.5 minutes for [^3H]-NA and 5 minutes for [^3H]-5-HT. The 96 samples were then filtered through a Unifilter GF/B® microtitre plate (Packard) and washed with […] of incubated buffer using a “Brabdel MPXR1-96T Cell-Harvester”. The Unifilter GF/B plate was dried for 1 hour at 55° C. The plate was then sealed with a Back seal® (Packard) and 35 μl of scintillation fluid were added per well (Ultima gold®, Packard). After sealing with a top seal® (Packard) and establishment of equilibrium (around 5 hours), radioactivity was determined in a “Trilux 1450 Microbeta” (Wallac).
(§7) The quantity of protein used in the above determination corresponded to the values known from the literature, as for example described in “Protein measurement with the folin phenol reagent”, Lowry et al., J. Biol. Chem., 193, 265-275, 1951. A detailed description of the method may also be found in the literature, for example in M. Ch. Frink, H.-H. Hennies, W. Engelberger, M. Haurand and B. Wilffert (1996) Arzneim.-Forsch./Drug Res. 46 (III), 11, 1029-1036. The corresponding literature descriptions are hereby introduced as a reference and are deemed to be part of the disclosure.

Another test addresses T3, NA transporter (Rattus norvegicus, UniProt Q63380).
T3 construct: Synaptosomes from rat brain regions were freshly isolated; from tissue; host or cells: rat brain synaptosomes (hypothalamus)
Briefly: Noradrenalin uptake inhibition in rat brain synaptosomes (hypothalamus). Type of test: biochemical. Particulars: conc. 10 (unit not given), [3H]-NA, 7.5 minutes.
From the text: as §1, §2, §3, §4, §5, §6
The following characteristics were determined for the NA transporter: NA uptake: Km=0.32±0.11 μM
as §7

Where [1] appears, read: [3H]-naloxone, from IC50 by Cheng-Prusoff equation, read-out: Human ORm Nal Ki.

Read-outs that look alike come from different tables or passages of the source.

T3 sequence (Q63380 1-617): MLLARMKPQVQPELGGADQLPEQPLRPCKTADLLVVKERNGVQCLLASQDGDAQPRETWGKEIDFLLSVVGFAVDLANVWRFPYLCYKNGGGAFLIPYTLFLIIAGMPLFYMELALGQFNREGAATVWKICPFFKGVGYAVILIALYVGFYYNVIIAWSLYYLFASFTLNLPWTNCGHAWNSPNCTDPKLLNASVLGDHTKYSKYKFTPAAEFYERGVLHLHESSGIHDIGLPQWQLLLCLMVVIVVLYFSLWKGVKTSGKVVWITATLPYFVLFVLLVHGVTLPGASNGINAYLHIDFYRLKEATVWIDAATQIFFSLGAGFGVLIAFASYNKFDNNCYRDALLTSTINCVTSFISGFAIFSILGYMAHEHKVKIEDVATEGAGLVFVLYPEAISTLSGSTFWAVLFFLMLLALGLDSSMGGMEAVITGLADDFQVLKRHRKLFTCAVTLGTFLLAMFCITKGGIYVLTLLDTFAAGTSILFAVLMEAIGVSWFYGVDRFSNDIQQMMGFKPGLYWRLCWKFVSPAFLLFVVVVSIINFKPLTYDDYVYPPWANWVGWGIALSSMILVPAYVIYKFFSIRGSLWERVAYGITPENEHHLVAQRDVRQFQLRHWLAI
human μ opiate receptor, sequence (P35372 whole entry): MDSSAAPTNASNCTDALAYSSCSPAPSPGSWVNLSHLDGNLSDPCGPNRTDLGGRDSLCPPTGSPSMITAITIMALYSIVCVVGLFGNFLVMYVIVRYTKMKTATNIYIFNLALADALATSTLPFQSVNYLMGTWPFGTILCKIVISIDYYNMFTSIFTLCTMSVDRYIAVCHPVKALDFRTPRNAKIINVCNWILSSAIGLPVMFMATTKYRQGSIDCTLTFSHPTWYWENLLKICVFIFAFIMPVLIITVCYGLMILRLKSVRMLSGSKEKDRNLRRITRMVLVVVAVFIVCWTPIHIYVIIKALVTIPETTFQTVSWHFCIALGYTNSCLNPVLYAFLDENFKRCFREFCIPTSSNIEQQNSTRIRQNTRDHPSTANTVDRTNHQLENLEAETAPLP
T1 sequence (P41146 whole entry): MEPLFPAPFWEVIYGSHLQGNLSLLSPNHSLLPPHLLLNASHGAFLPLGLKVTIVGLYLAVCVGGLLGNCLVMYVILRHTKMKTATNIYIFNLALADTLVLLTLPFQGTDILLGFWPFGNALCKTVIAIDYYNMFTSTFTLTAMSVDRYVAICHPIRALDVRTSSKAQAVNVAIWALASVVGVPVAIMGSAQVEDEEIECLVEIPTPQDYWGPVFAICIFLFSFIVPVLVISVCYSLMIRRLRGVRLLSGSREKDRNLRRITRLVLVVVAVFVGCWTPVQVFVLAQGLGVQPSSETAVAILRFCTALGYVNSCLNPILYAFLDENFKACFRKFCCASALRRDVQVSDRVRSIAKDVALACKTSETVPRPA

With `CCN(CC)Cc1ccc(C(c2ccccc2)N(C)C)n1C.Cl.Cl` (stereo not shown) [Example 7, [5-(Dimethylamino-phenyl-methyl)-1-methyl-1H-pyrrol-2-ylmethyl]-diethyl-amine dihydrochloride], the Ki (commonly the dissociation constant of the complex between target and ligand, obtained from inhibition or displacement) on ORL-1 receptor was determined as 420 nM. Besides, the “Human ORL1 inhibition [%]” value on ORL-1 receptor (test concentration not given) is on record as 42%. Besides, the inhibition (commonly the change of the read-out against control, counted positive when it falls) at 1 µM at human μ opiate receptor stood at 50%. Further, on 5-HT uptake, the “Rat 5-HT uptake inhibition [%] conc. 10” value worked out at 44%. At NA transporter, the “Rat noradrenalin uptake inhibition [%], conc. 10” value came out at 52%.

As to `CN(C)C(c1ccc(F)cc1)c1ccc(CN2CCOCC2)n1C.Cl.Cl` (stereo not shown) [Example 6, [(4-Fluoro-phenyl)-(1-methyl-5-morpholin-4-ylmethyl-1H-pyrrol-2-yl)-methyl]-dimethyl-amine dihydrochloride], the Ki at human μ opiate receptor (setting [1]) was determined as 500 nM. Moreover, the inhibition at 1 µM on human μ opiate receptor stood at 21%. For the same compound, the “Rat 5-HT uptake inhibition [%] conc. 10” value at 5-HT uptake was 53%. In addition, the “Rat noradrenalin uptake inhibition [%], conc. 10” value at NA transporter is 42%.

On to `CCOC(=O)C(c1ccc(CN2CCCCC2)n1C)N1CCOCC1.Cl.Cl` (stereo not shown) [Example 9, (1-Methyl-5-piperidin-1-ylmethyl-1H-pyrrol-2-yl)-morpholin-4-yl-acetic acid ethyl eastr dihydrochloride], for which, on 5-HT uptake, the “Rat 5-HT uptake inhibition [%] conc. 10” value came out at 26%.

With `COc1ccccc1C(c1ccc(CN2CCCCC2)n1C)N(C)C.Cl.Cl` (stereo not shown) [Example 1, [(2-Methoxyphenyl)-(1-methyl-5-piperidin-1-ylmethyl-1H-pyrrol-2-yl)-methyl]-dimethyl-amine dihydrochloride], at 5-HT uptake, the “Rat 5-HT uptake inhibition [%] conc. 10” value was 77%. In addition, the “Rat noradrenalin uptake inhibition [%], conc. 10” value on NA transporter was found to be 63%.

As to `COc1ccccc1C(c1ccc(CN2CCCC2)n1C)N(C)C.Cl.Cl` (stereo not shown) [Example 2, [(2-Methoxyphenyl)-(1-methyl-5-pyrrolidin-1-ylmethyl-1H-pyrrol-2-yl)-methyl]-dimethyl-amine dihydrochloride], the inhibition at 1 µM on human μ opiate receptor stood at 25%. The “Rat 5-HT uptake inhibition [%] conc. 10” value on 5-HT uptake is given as 76%. Moreover, the “Rat noradrenalin uptake inhibition [%], conc. 10” value on NA transporter amounted to 65%.

On to `CN(C)C(c1ccc(Br)cc1)c1ccc(CN2CCCCC2)n1C.Cl.Cl` (stereo not shown) [Example 5, [(4-Bromo-phenyl)-(1-methyl-5-piperidin-1-ylmethyl-1H-pyrrol-2-yl)-methyl]-dimethyl-amine dihydrochloride], for which the Ki on human μ opiate receptor (setting [1]) came out at 860 nM. For the same compound, on human μ opiate receptor, the inhibition at 1 µM was found to be 52%. In addition, the “Rat 5-HT uptake inhibition [%] conc. 10” value on 5-HT uptake was 39%. Moreover, the “Rat noradrenalin uptake inhibition [%], conc. 10” value at NA transporter is given as 91%.

Take `CCOC(=O)C(c1ccc(CN2CCCCC2)n1C)N1CCCCC1` (stereo not shown) [Example 8, (1-Methyl-5-piperidin-1-ylmethyl-1H-pyrrol-2-yl)-piperidin-1-yl-acetic acid ethyl ester drochloride]: the Ki at human μ opiate receptor (setting [1]) turned out to be 220 nM. Further, the inhibition at 1 µM on human μ opiate receptor was 69%. Moreover, the “Rat noradrenalin uptake inhibition [%], conc. 10” value at NA transporter came to 33%.

Turning to `CCOC(=O)C(c1ccc(CN2CCOCC2)n1C)N1CCCC1.Cl.Cl` (stereo not shown) [Example 13, (1-Methyl-5-morpholin-4-ylmethyl-1H-pyrrol-2-yl)-pyrrolidin-1-yl-acetic acid ethyl ester dihydrochloride], at 5-HT uptake, the “Rat 5-HT uptake inhibition [%] conc. 10” value is given as 28%.

As to `CN(C)C(c1ccccc1Br)c1ccc(CN2CCCCC2)n1C.Cl.Cl` (stereo not shown) [Example 4, [(2-Bromo-phenyl)-(1-methyl-5-piperidin-1-ylmethyl-1H-pyrrol-2-yl)-methyl]-dimethyl-amine dihydrochloride], the “Rat 5-HT uptake inhibition [%] conc. 10” value on 5-HT uptake amounted to 57%.

For the compound `CCOC(=O)C(c1ccc(CN(CC)CC)n1C)N1CCOCC1.Cl.Cl` (stereo not shown) [Example 10, (5-Diethylaminomethyl-1-methyl-1H-pyrrol-2-yl)-morpholin-4-yl-acetic acid ethyl ester dihydrochloride], at human μ opiate receptor, the Ki turned out to be 70 nM and the inhibition at 1 µM was 84%. For the same compound, the “Rat 5-HT uptake inhibition [%] conc. 10” value at 5-HT uptake was determined as 28%.

Take `Cc1ccccc1C(c1ccc(CN2CCCCC2)n1C)N(C)C.Cl.Cl` (stereo not shown) [Example 3, Dimethyl-[(1-methyl-5-piperidin-1-ylmethyl-1H-pyrrol-2-yl)-o-tolyl-methyl]-amine dihydrochloride]: the “Rat 5-HT uptake inhibition [%] conc. 10” value on 5-HT uptake came to 30%.
